Source: patent publication US11952593B2, “Detection and treatment of daughter number variations in cancer cells” (PharmacoGenetics Limited, priority 2020, dated 2024)

Legend:
[1] = test system: HeLa cervical adenocarcinoma cells; assay: Time-lapse microscopy count of multi-daughter divisions (DNV frequency), HeLa; type: cell-based, human; conditions: wogonin 50 μM, 5-FU 20 μM
Method: (§1) To investigate DNVs, the human HepG2 hepatocellular carcinoma, HeLa cervical adenocarcinoma, and A549 lung adenocarcinoma cell lines, as well as the non-cancerous RPE1 line of hTRET-immortalized retina epithelial cells, were obtained from the American Type Culture Collection (ATCC, Manassas, Va., USA) and cultivated in Dulbecco's Modified Eagle Medium (DMEM) supplemented with 10% fetal bovine serum (Gemini Bio-Products, Sacramento. Calif.) under a humidified atmosphere of 5% C02 at 37° C. After 24 hours, the old medium was replaced by acidic DMEM growth medium buffered by 15 mM 2-(N-morpholino)-ethanesulfonic acid.HCl (MES) at pH 6.4, neutral DMEM growth medium buffered by 15 mM 3-(N-morpholino)propanesulfonic acid.HCl (MOPS) at pH 7.4, alkaline growth medium buffered by 15 mM tris(hydroxymethyl)aminomethane.HCl (Tris) at pH 8.4, or neutral DMEM growth medium containing wogonin (50 μM) or 5-FU (20 μM). Using phase contrast microscopy, time-lapse photographs were recorded at different positions of the wells at 15-minute intervals for 24 hours using the Nikon ECLIPSE Ti Live Cell Imaging Observatory, enabling the count of P1 through P8 patterns at the end of Stage 2 of the DNV process (FIG. 1). All the images were photographed at 100× magnification. Altemately, using fluorescence microscopy, the cells were seeded into 12 well plates at 1×10^3 per well and stained with Hoechst 33342 ([…], Thermofisher) for 30 minutes in an incubator at 37° C. After 30 minutes, culture medium was replaced by various treatment media and placed under the Nikon ECLIPSE Ti Live Cell Imaging Observatory for 24 hours. For the HeLa, HepG2 and A549 cells, the various treatments were also extended to 5 days. Because the RPE1 cells yielded no DNVs after 24 hours of drug treatment, its treatment periods were not extended beyond 24 hours. All the cells were manually traced and quantified using the ImageJ software. DNV frequencies were estimated by dividing the total number of multi-daughter ([…]) divisions by the total number of cell divisions. Fluorescence staining and time-lapse microscopy were employed to differentiate between the bi-, tri-, tetra- and penta-daughter cell divisions, and to estimate the percentages of the P1 through P8 patterns in the final daughter cells generated by each of the DNV events. GraphPad Prism 5.0 software was employed for statistical analysis, and the results were presented as the mean. Significance was determined using the Student t-test (two-tailed, unpaired/unequal variances).

[2] = test system: non-cancerous RPE1 retina epithelial cells; assay: Time-lapse microscopy count of multi-daughter divisions (DNV frequency), RPE1; type: cell-based; conditions: RPE1, 24 hours; wogonin 50 μM, 5-FU 20 μM
Method: as §1

[3] = test system: HepG2 hepatocellular carcinoma cells; assay: Time-lapse microscopy count of multi-daughter divisions (DNV frequency), HepG2; type: cell-based, human; conditions: wogonin 50 μM, 5-FU 20 μM
Method: as §1

O=c1[nH]cc(F)c(=O)[nH]1 [5-FU, 5-flurouracil]
Bi-daughter divisions, % of total divisions ([1]; 24 hours): 99.0%
Bi-daughter divisions, number ([1]; 24 hours): 3264
Sum of Multi daughter Divisions, % of total mitotic divisions ([1]; 24 hours): 0.97%
Sum of Multi daughter Divisions, number ([1]; 24 hours): 32
Tetra-daughter divisions, % of total divisions ([1]; 24 hours): 0.09%
Tetra-daughter divisions, number ([1]; 24 hours): 3
Total number of observed divisions ([1]; 24 hours): 3296 (100)
Tri-daughter divisions, % of total divisions ([1]; 24 hours): 0.88%
Tri-daughter divisions, number ([1]; 24 hours): 29
≥Tetra-daughter divisions, number ([1]; 24 hours): 0
Bi-daughter divisions, % of total divisions ([1]; 5 days): 91.8%
Bi-daughter divisions, number ([1]; 5 days): 143
Sum of Multi-daughter Divisions, % of total mitotic divisions ([1]; 5 days): 8.3%
Sum of Multi-daughter Divisions, number ([1]; 5 days): 13
Tetra-daughter divisions, number ([1]; 5 days): 0
Total Divisions ([1]; 5 days): 156 (100)
Tri-daughter divisions, % of total divisions ([1]; 5 days): 8.3%
Tri-daughter divisions, number ([1]; 5 days): 13
≥Tetra-daughter divisions, number ([1]; 5 days): 0
Bi-daughter divisions, % of total divisions [2]: 100%
Bi-daughter divisions, number [2]: 15
Sum of Multi-daughter Divisions, number [2]: 0
Total number of observed divisions [2]: 15
Tri-daughter divisions, number [2]: 0
Bi-daughter divisions, % of total divisions ([3]; HepG2, 24 hours): 99.1%
Bi-daughter divisions, number ([3]; HepG2, 24 hours): 1995
Sum of Multi daughter Divisions, % of total mitotic divisions ([3]; HepG2, 24 hours): 0.94%
Sum of Multi daughter Divisions, number ([3]; HepG2, 24 hours): 19
Tetra-daughter divisions, % of total divisions ([3]; HepG2, 24 hours): 0.25%
Tetra-daughter divisions, number ([3]; HepG2, 24 hours): 5
Total number of observed divisions ([3]; HepG2, 24 hours): 2014 (100)
Tri-daughter divisions, % of total divisions ([3]; HepG2, 24 hours): 0.69%
Tri-daughter divisions, number ([3]; HepG2, 24 hours): 14
≥Tetra-daughter divisions, number ([3]; HepG2, 24 hours): 0
Bi-daughter divisions, % of total divisions ([3]; HepG2, 5 days): 90.6%
Bi-daughter divisions, number ([3]; HepG2, 5 days): 270
Sum of Multi-daughter Divisions, % of total mitotic divisions ([3]; HepG2, 5 days): 9.30%
Sum of Multi-daughter Divisions, number ([3]; HepG2, 5 days): 28
Tetra-daughter divisions, % of total divisions ([3]; HepG2, 5 days): 2.6%
Tetra-daughter divisions, number ([3]; HepG2, 5 days): 8
Total Divisions ([3]; HepG2, 5 days): 298 (100)
Tri-daughter divisions, % of total divisions ([3]; HepG2, 5 days): 5.7%
Tri-daughter divisions, number ([3]; HepG2, 5 days): 17
≥Tetra-daughter divisions, % of total divisions ([3]; HepG2, 5 days): 1.0%
≥Tetra-daughter divisions, number ([3]; HepG2, 5 days): 3

COc1c(O)cc(O)c2c(=O)cc(-c3ccccc3)oc12 [Wogonin, wogonin]
Bi-daughter divisions, % of total divisions ([1]; 24 hours): 98.3%
Bi-daughter divisions, number ([1]; 24 hours): 3041
Sum of Multi daughter Divisions, % of total mitotic divisions ([1]; 24 hours): 1.70%
Sum of Multi daughter Divisions, number ([1]; 24 hours): 53
Tetra-daughter divisions, % of total divisions ([1]; 24 hours): 0.19%
Tetra-daughter divisions, number ([1]; 24 hours): 6
Total number of observed divisions ([1]; 24 hours): 3094 (100)
Tri-daughter divisions, % of total divisions ([1]; 24 hours): 1.54%
Tri-daughter divisions, number ([1]; 24 hours): 47
≥Tetra-daughter divisions, number ([1]; 24 hours): 0
Bi-daughter divisions, % of total divisions ([1]; 5 days): 84%
Bi-daughter divisions, number ([1]; 5 days): 205
Sum of Multi-daughter Divisions, % of total mitotic divisions ([1]; 5 days): 16.3%
Sum of Multi-daughter Divisions, number ([1]; 5 days): 40
Tetra-daughter divisions, % of total divisions ([1]; 5 days): 2.4%
Tetra-daughter divisions, number ([1]; 5 days): 6
Total Divisions ([1]; 5 days): 245 (100)
Tri-daughter divisions, % of total divisions ([1]; 5 days): 13.0%
Tri-daughter divisions, number ([1]; 5 days): 32
≥Tetra-daughter divisions, % of total divisions ([1]; 5 days): 0.8%
≥Tetra-daughter divisions, number ([1]; 5 days): 2
Bi-daughter divisions, % of total divisions [2]: 100%
Bi-daughter divisions, number [2]: 106
Sum of Multi-daughter Divisions, number [2]: 0
Total number of observed divisions [2]: 106
Tri-daughter divisions, number [2]: 0
Bi-daughter divisions, % of total divisions ([3]; HepG2, 24 hours): 97.0%
Bi-daughter divisions, number ([3]; HepG2, 24 hours): 2482
Sum of Multi daughter Divisions, % of total mitotic divisions ([3]; HepG2, 24 hours): 2.97%
Sum of Multi daughter Divisions, number ([3]; HepG2, 24 hours): 76
Tetra-daughter divisions, % of total divisions ([3]; HepG2, 24 hours): 0.70%
Tetra-daughter divisions, number ([3]; HepG2, 24 hours): 18
Total number of observed divisions ([3]; HepG2, 24 hours): 2558 (100)
Tri-daughter divisions, % of total divisions ([3]; HepG2, 24 hours): 2.19%
Tri-daughter divisions, number ([3]; HepG2, 24 hours): 56
≥Tetra-daughter divisions, % of total divisions ([3]; HepG2, 24 hours): 0.08%
≥Tetra-daughter divisions, number ([3]; HepG2, 24 hours): 2
Bi-daughter divisions, % of total divisions ([3]; HepG2, 5 days): 83.9%
Bi-daughter divisions, number ([3]; HepG2, 5 days): 262
Sum of Multi-daughter Divisions, % of total mitotic divisions ([3]; HepG2, 5 days): 16.0%
Sum of Multi-daughter Divisions, number ([3]; HepG2, 5 days): 50
Tetra-daughter divisions, % of total divisions ([3]; HepG2, 5 days): 3.8%
Tetra-daughter divisions, number ([3]; HepG2, 5 days): 12
Total Divisions ([3]; HepG2, 5 days): 312 (100)
Tri-daughter divisions, % of total divisions ([3]; HepG2, 5 days): 16.0%
Tri-daughter divisions, number ([3]; HepG2, 5 days): 50
≥Tetra-daughter divisions, % of total divisions ([3]; HepG2, 5 days): 2.5%
≥Tetra-daughter divisions, number ([3]; HepG2, 5 days): 8
Sum of Multi-daughter Divisions, % of total mitotic divisions ([3]; HepG2, 5 days, listed as wogonin): 18.0%
